We go through 4 compounds from ChEMBL document CHEMBL5729639, “FGFR4 inhibitor and preparation method and use thereof” (2023).

This assay deals with Fibroblast growth factor receptor 1 (Homo sapiens, UniProt P11362). Description: Enzymologic Experiment of FGFR1: In this experiment, the inhibitory effect of the compounds on FGFR1 kinase activity was tested by a fluorescence resonance energy transfer (TR-FRET) method, and the half maximal inhibitory concentration (IC50) of the compounds on the FGFR1 kinase activity was determined. 1) 1˜5 μL of FGFR1 enzymatic solution was added to a 384-well plate, and the final concentration of the enzyme was 0.1˜5 nM. 2) 1˜5 μL of diluted solution in gradient of the compound was added.3) 1˜5 μL of a substrate mixture containing substrate polypeptide with a final concentration of 5˜50 nM and ATP with a final concentration of 10˜200 μM was added. 4) The mixture was incubated for 0.5-3 hours at room temperature. 5) 10 μL of EDTA and a test solution comprising labeled antibody were added, and the plate was incubated for 1 hour at room temperature. 6) The fluorescence signal values of each plate were determined by a microplate reader at 665 nm. 7) The inhibition rates were calculated according to the fluorescence signal values.
Fibroblast growth factor receptor 1, sequence (P11362 whole entry): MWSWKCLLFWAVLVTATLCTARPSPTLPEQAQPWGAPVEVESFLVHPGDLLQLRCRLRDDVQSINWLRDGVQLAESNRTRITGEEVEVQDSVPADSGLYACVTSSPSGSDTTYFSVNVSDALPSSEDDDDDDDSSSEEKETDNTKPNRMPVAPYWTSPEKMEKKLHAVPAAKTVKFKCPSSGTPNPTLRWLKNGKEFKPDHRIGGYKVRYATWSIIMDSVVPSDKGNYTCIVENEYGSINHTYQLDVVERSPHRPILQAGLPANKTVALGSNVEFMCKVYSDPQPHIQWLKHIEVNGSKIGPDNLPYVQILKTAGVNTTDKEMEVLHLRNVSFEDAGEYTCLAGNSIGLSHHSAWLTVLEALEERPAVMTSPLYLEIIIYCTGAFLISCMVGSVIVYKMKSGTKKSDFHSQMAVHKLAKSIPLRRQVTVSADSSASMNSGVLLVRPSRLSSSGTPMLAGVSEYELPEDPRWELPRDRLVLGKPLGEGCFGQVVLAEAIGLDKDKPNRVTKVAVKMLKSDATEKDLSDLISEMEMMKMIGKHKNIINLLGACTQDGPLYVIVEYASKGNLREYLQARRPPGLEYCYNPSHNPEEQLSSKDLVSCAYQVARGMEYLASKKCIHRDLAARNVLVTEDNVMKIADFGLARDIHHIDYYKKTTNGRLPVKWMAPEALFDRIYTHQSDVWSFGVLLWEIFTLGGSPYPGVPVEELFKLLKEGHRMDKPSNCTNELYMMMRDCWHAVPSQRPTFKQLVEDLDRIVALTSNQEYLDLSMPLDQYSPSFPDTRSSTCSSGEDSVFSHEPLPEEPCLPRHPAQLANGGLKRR
What is called IC50 is the concentration that gives 50% inhibition. For the compound `COC[C@@H](C)Nc1cc(NC(=O)N2CCCc3cc(CN4CC[C@@H](OC)C4=O)c(C=O)nc32)ncc1C#N`, the half-maximal inhibitory concentration (IC50) was > 10 µM.

Consider `COCCNc1cc(NC(=O)N2CCCc3cc(CN(C=O)C[C@H]4CCCO4)c(C=O)nc32)ncc1C#N`, for which the concentration for half-maximal inhibition (IC50) is > 10 µM.

Consider `COCCNc1cc(NC(=O)N2CCCc3cc(CN(C=O)[C@H]4CCOC4)c(C=O)nc32)ncc1C#N`, for which the concentration for half-maximal inhibition (IC50) is > 10 µM.

On to `COCCNc1cc(NC(=O)N2CCCc3cc(CN(C=O)C[C@@H]4CCCO4)c(C=O)nc32)ncc1C#N`, for which the IC50 is > 10 µM.
